Measurements taken from ChEMBL document CHEMBL2424576, “Chiral N-benzyl-N-methyl-1-(naphthalen-1-yl)ethanamines and their in vitro antifungal activity against Cryptococcus neoformans, Trichophyton mentagrophytes and Trichophyton rubrum” (2013).
In brackets after ≈: the same amount, converted by molar mass.

Legend:
Assay type in all cases: functional
[1] = tested on: Trichophyton rubrum; test: Antifungal activity against Trichophyton rubrum after 7 days by broth microdilution method; conditions: 168 h
[2] = tested on: Cryptococcus neoformans; test: Antifungal activity against Cryptococcus neoformans after 72 hrs by broth microdilution method
[3] = tested on: Trichophyton mentagrophytes; test: Antifungal activity against Trichophyton mentagrophytes after 7 days by broth microdilution method; conditions: 168 h
[4] = tested on: Trichophyton mentagrophytes; test: Antifungal activity against Trichophyton mentagrophytes assessed as fungal growth at 0.25 ug/ml after 7 days by broth microdilution method
[5] = tested on: Trichophyton rubrum; test: Antifungal activity against Trichophyton rubrum assessed as fungal growth at 0.25 ug/ml after 7 days by broth microdilution method
[6] = tested on: Cryptococcus neoformans; test: Antifungal activity against Cryptococcus neoformans assessed as fungal growth at 0.125 ug/ml after 72 hrs by broth microdilution method

Row | SMILES | MIC50 [1] | MIC80 [1] | MIC50 [2] | MIC80 [2] | MIC50 [3] | MIC80 [3] | Activity [4] | Activity [5] | Activity [6]
1 | C[C@H](c1cccc2ccccc12)N(C)Cc1ccc([N+](=O)[O-])cc1 | 0.25 µg/mL (≈ 0.78 µM) | 0.5 µg/mL (≈ 1.56 µM) | 2 µg/mL (≈ 6.24 µM) | > 16 µg/mL | 1 µg/mL (≈ 3.12 µM) | 2 µg/mL (≈ 6.24 µM) | – | – | –
2 | C[C@H](c1cccc2ccccc12)N(C)Cc1ccc(OC(F)(F)F)cc1 | 0.5 µg/mL (≈ 1.39 µM) | 1 µg/mL (≈ 2.78 µM) | 2 µg/mL (≈ 5.56 µM) | 4 µg/mL (≈ 11.1 µM) | – | 0.5 µg/mL (≈ 1.39 µM) | >50% | – | –
3 | CN(Cc1cccc2ccccc12)[C@H](CF)c1ccc(C(C)(C)C)cc1 | > 32 µg/mL | > 32 µg/mL | > 32 µg/mL | > 32 µg/mL | > 32 µg/mL | > 32 µg/mL | – | – | –
4 | C[C@H](c1cccc2ccccc12)N(C)Cc1ccc(-c2ccccc2)cc1 | – | – | > 16 µg/mL | > 32 µg/mL | – | – | – | – | –
5 | C[C@@H]1[C@H](O)[C@@H](C)/C=C/C=C/C=C/C=C/C=C/C=C/C=C/[C@H](O[C@@H]2O[C@H](C)[C@@H](O)[C@H](N)[C@@H]2O)C[C@@H]2O[C@](O)(C[C@@H](O)C[C@@H](O)[C@H](O)CC[C@@H](O)C[C@@H](O)CC(=O)O[C@H]1C)C[C@H](O)[C@H]2C(=O)O [AMPHOTERICIN B] | > 0.25 µg/mL | < 0.5 µg/mL | 0.25 µg/mL (≈ 0.271 µM) | < 0.5 µg/mL | 0.5 µg/mL (≈ 0.541 µM) | < 1 µg/mL | – | – | –
6 | C[C@H](c1cccc2ccccc12)N(C)Cc1cc(C(F)(F)F)cc(C(F)(F)F)c1 | – | – | > 32 µg/mL | > 32 µg/mL | – | – | – | – | –
7 | C[C@H](c1cccc2ccccc12)N(C)Cc1ccccc1Br | – | – | > 32 µg/mL | > 32 µg/mL | – | – | – | – | –
8 | C[C@H](c1cccc2ccccc12)N(C)Cc1ccccc1F | – | – | > 32 µg/mL | > 32 µg/mL | – | – | – | – | –
9 | C[C@H](c1cccc2ccccc12)N(C)Cc1ccc(C(F)(F)F)cc1 | 0.25 µg/mL (≈ 0.728 µM) | 0.5 µg/mL (≈ 1.46 µM) | 0.5 µg/mL (≈ 1.46 µM) | 1 µg/mL (≈ 2.91 µM) | 0.25 µg/mL (≈ 0.728 µM) | 0.5 µg/mL (≈ 1.46 µM) | – | – | –
10 | C[C@H](c1cccc2ccccc12)N(C)Cc1ccc([Si](C)(C)C)cc1 | – | 0.5 µg/mL (≈ 1.44 µM) | 0.5 µg/mL (≈ 1.44 µM) | 1 µg/mL (≈ 2.88 µM) | – | 0.5 µg/mL (≈ 1.44 µM) | >50% | >50% | –
11 | CN(Cc1cccc2ccccc12)[C@@H](CF)c1ccc(C(C)(C)C)cc1 | > 32 µg/mL | > 32 µg/mL | > 32 µg/mL | > 32 µg/mL | > 32 µg/mL | > 32 µg/mL | – | – | –
12 | C[C@H](c1cccc2ccccc12)N(C)Cc1ccccc1 | – | – | 16 µg/mL (≈ 58.1 µM) | > 16 µg/mL | – | – | – | – | –
13 | Cc1cc(C(C)(C)C)cc(C)c1CN(C)[C@H](C)c1cccc2ccccc12 | > 32 µg/mL | > 32 µg/mL | 1 µg/mL (≈ 2.78 µM) | 32 µg/mL (≈ 89 µM) | > 32 µg/mL | > 32 µg/mL | – | – | –
14 | C[C@H](c1cccc2ccccc12)N(C)Cc1cccnc1 | – | – | > 32 µg/mL | > 32 µg/mL | – | – | – | – | –
15 | CC(C)(C)c1ccc([C@@H](CF)NCc2cccc3ccccc23)cc1 | > 32 µg/mL | > 32 µg/mL | > 32 µg/mL | > 32 µg/mL | > 32 µg/mL | > 32 µg/mL | – | – | –
16 | C[C@H](c1cccc2ccccc12)N(C)Cc1cccc(Br)c1 | 1 µg/mL (≈ 2.82 µM) | 2 µg/mL (≈ 5.65 µM) | 4 µg/mL (≈ 11.3 µM) | 8 µg/mL (≈ 22.6 µM) | 2 µg/mL (≈ 5.65 µM) | 4 µg/mL (≈ 11.3 µM) | – | – | –
17 | COc1ccc(CN(C)[C@H](C)c2cccc3ccccc23)cc1 | 1 µg/mL (≈ 3.27 µM) | 2 µg/mL (≈ 6.55 µM) | 2 µg/mL (≈ 6.55 µM) | 4 µg/mL (≈ 13.1 µM) | 1 µg/mL (≈ 3.27 µM) | 2 µg/mL (≈ 6.55 µM) | – | – | –

Row | SMILES | MIC50 [1] | MIC80 [1] | MIC50 [2] | MIC80 [2] | MIC50 [3] | MIC80 [3] | Activity [4] | Activity [5] | Activity [6]
18 | CN(Cc1ccc(C(C)(C)C)cc1)Cc1cccc2ccccc12 [BUTENAFINE] | 0.03 µg/mL (≈ 0.0945 µM) | 0.06 µg/mL (≈ 0.189 µM) | 0.5 µg/mL (≈ 1.57 µM) | 1 µg/mL (≈ 3.15 µM) | 0.06 µg/mL (≈ 0.189 µM) | 0.125 µg/mL (≈ 0.394 µM) | – | – | –
19 | C[C@H](c1cccc2ccccc12)N(C)Cc1ccccc1C(F)(F)F | – | – | > 32 µg/mL | > 32 µg/mL | – | – | – | – | –
20 | C[C@H](c1cccc2ccccc12)N(C)Cc1cc(C(C)(C)C)cc(C(C)(C)C)c1 | – | – | 32 µg/mL (≈ 82.6 µM) | > 32 µg/mL | – | – | – | – | –
21 | C[C@H](c1cccc2ccccc12)N(C)Cc1cccc(C(F)(F)F)c1 | 2 µg/mL (≈ 5.82 µM) | 4 µg/mL (≈ 11.6 µM) | 4 µg/mL (≈ 11.6 µM) | 8 µg/mL (≈ 23.3 µM) | 4 µg/mL (≈ 11.6 µM) | > 32 µg/mL | – | – | –
22 | C[C@H](c1cccc2ccccc12)N(C)Cc1ccccc1-c1ccccc1 | – | – | > 32 µg/mL | > 32 µg/mL | – | – | – | – | –
23 | CC(C)(C)c1ccc([C@H](CF)NCc2cccc3ccccc23)cc1 | 2 µg/mL (≈ 5.96 µM) | 4 µg/mL (≈ 11.9 µM) | > 32 µg/mL | > 32 µg/mL | 2 µg/mL (≈ 5.96 µM) | 4 µg/mL (≈ 11.9 µM) | – | – | –
24 | C[C@H](c1cccc2ccccc12)N(C)Cc1ccc(F)cc1 | – | – | 4 µg/mL (≈ 13.6 µM) | 8 µg/mL (≈ 27.3 µM) | – | – | – | – | –
25 | C[C@H](c1ccc(C(C)(C)C)cc1)N(C)Cc1cccc2ccccc12 | > 32 µg/mL | > 32 µg/mL | > 32 µg/mL | > 32 µg/mL | > 32 µg/mL | > 32 µg/mL | – | – | –
26 | C[C@H](c1cccc2ccccc12)N(C)Cc1ccc(C(C)(C)C)cc1 | 0.06 µg/mL (≈ 0.181 µM) | 0.125 µg/mL (≈ 0.377 µM) | – | 0.25 µg/mL (≈ 0.754 µM) | 0.06 µg/mL (≈ 0.181 µM) | 0.125 µg/mL (≈ 0.377 µM) | – | – | >50%
27 | Cc1ccc(CN(C)[C@H](C)c2cccc3ccccc23)cc1 | 0.25 µg/mL (≈ 0.864 µM) | 0.5 µg/mL (≈ 1.73 µM) | 0.5 µg/mL (≈ 1.73 µM) | 1 µg/mL (≈ 3.46 µM) | 0.25 µg/mL (≈ 0.864 µM) | 0.5 µg/mL (≈ 1.73 µM) | – | – | –
28 | C[C@H](c1cccc2ccccc12)N(C)Cc1ccncc1 | – | – | 16 µg/mL (≈ 57.9 µM) | > 32 µg/mL | – | – | – | – | –
29 | C[C@@H](c1cccc2ccccc12)N(C)Cc1ccc(C(C)(C)C)cc1 | – | – | 1 µg/mL (≈ 3.02 µM) | 2 µg/mL (≈ 6.03 µM) | – | – | – | – | –
30 | C[C@@H](c1ccc(C(C)(C)C)cc1)N(C)Cc1cccc2ccccc12 | 0.5 µg/mL (≈ 1.51 µM) | 1 µg/mL (≈ 3.02 µM) | 2 µg/mL (≈ 6.03 µM) | 4 µg/mL (≈ 12.1 µM) | 0.5 µg/mL (≈ 1.51 µM) | 1 µg/mL (≈ 3.02 µM) | – | – | –
31 | C[C@H](c1cccc2ccccc12)N(C)Cc1ccc(Br)cc1 | 0.125 µg/mL (≈ 0.353 µM) | 0.25 µg/mL (≈ 0.706 µM) | 0.5 µg/mL (≈ 1.41 µM) | 1 µg/mL (≈ 2.82 µM) | 0.25 µg/mL (≈ 0.706 µM) | 0.5 µg/mL (≈ 1.41 µM) | – | – | –
32 | C[C@H](c1cccc2ccccc12)N(C)Cc1ccc(OCc2ccccc2)cc1 | 0.125 µg/mL (≈ 0.328 µM) | 0.25 µg/mL (≈ 0.655 µM) | 0.5 µg/mL (≈ 1.31 µM) | 1 µg/mL (≈ 2.62 µM) | 0.125 µg/mL (≈ 0.328 µM) | 0.25 µg/mL (≈ 0.655 µM) | – | – | –
33 | C[C@H](c1cccc2ccccc12)N(C)Cc1ccccn1 | – | – | > 32 µg/mL | > 32 µg/mL | – | – | – | – | –
